Experimental findings from PubChem BioAssay AID330 (DTP/NCI, 2004) are described below.

Several values for one entry are separate records, joined by “and”; a condition that tells them apart may be missing. Equal values may be shown once. Inconclusive results and toxic doses are left out.

The test relates to P388 leukemia ip, CD2F1 mice, survival T/C. Description: NCI In Vivo Anticancer Drug Screen. Data for tumor model P388 Leukemia (intraperitoneal) in CD2F1 (CDF1) mice. The settings on record: endpoint: median survival time, higher = longer survival. The method, boiled down:
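Mice carrying the transplanted tumor received test compound or vehicle. Survival was recorded in each group, and the value is the treated-group measurement divided by that of the vehicle-treated control group.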

The mark [1] stands for this setting: dose: 50.0 mg/kg/injection, schedule: Q01DX005 (ip), vehicle: saline with Tween-80.
[2] abbreviates: dose: 100.0 mg/kg/injection, schedule: Q01DX005 (ip), vehicle: saline with Tween-80.
Where [3] appears, read: dose: 200.0 mg/kg/injection, schedule: Q01DX005 (ip), vehicle: saline with Tween-80.
[4] abbreviates: dose: 100.0 mg/kg/injection, schedule: Q01DX001 (ip), vehicle: Klucel (hydroxypropylcellulose) (HPC).
[5] abbreviates: dose: 200.0 mg/kg/injection, schedule: Q01DX001 (ip), vehicle: Klucel (hydroxypropylcellulose) (HPC).
Where [6] appears, read: dose: 400.0 mg/kg/injection, schedule: Q01DX001 (ip), vehicle: Klucel (hydroxypropylcellulose) (HPC).
[7] abbreviates: dose: 100.0 mg/kg/injection, schedule: Q04DX002 (ip), vehicle: saline with Tween-80.
The mark [8] stands for this setting: dose: 200.0 mg/kg/injection, schedule: Q04DX002 (ip), vehicle: saline with Tween-80.
Setting [9] is: dose: 50.0 mg/kg/injection, schedule: Q01DX009 (ip), vehicle: Klucel (hydroxypropylcellulose) (HPC).
The mark [10] stands for this setting: dose: 100.0 mg/kg/injection, schedule: Q01DX009 (ip), vehicle: Klucel (hydroxypropylcellulose) (HPC).
[11] abbreviates: dose: 200.0 mg/kg/injection, schedule: Q01DX009 (ip), vehicle: Klucel (hydroxypropylcellulose) (HPC).
Where [12] appears, read: dose: 50.0 mg/kg/injection, schedule: Q01DX005 (ip), vehicle: Klucel (hydroxypropylcellulose) (HPC).
Setting [13] is: dose: 100.0 mg/kg/injection, schedule: Q01DX005 (ip), vehicle: Klucel (hydroxypropylcellulose) (HPC).

For the molecule `Fc1ccccc1CN1COc2c(cc(Cl)c3cccnc23)C1`, the T/C runs as follows: (dose: 100.0 mg/kg/injection, schedule: Q04DX003 (ip), vehicle: Klucel (hydroxypropylcellulose) (HPC)) 93 % of control; (dose: 200.0 mg/kg/injection, schedule: Q04DX003 (ip), vehicle: Klucel (hydroxypropylcellulose) (HPC)) 100 % of control; (dose: 400.0 mg/kg/injection, schedule: Q04DX003 (ip), vehicle: Klucel (hydroxypropylcellulose) (HPC)) 97 % of control.

For the molecule `CCCCCCCNc1ncnc2[nH]ncc12`, the T/C is 112 % of control under setting [1], 107 % of control under setting [2] and 107 % of control under setting [3].

Turning to `CCOC(=O)CSc1nnc(-c2cc(OC)c(OC)c(OC)c2)o1`, the T/C is 98 % of control under setting [4], 104 % of control under setting [5] and 92 % of control under setting [6].

For the molecule `O=C1c2ccc(-c3ccccc3)cc2C(=O)c2cc3c(cc21)OCO3`, the T/C was 110 % of control (dose: 7.5 mg/kg/injection, schedule: Q01DX005 (ip), vehicle: saline with Tween-80); 100 % of control (dose: 15.0 mg/kg/injection, schedule: Q01DX005 (ip), vehicle: saline with Tween-80); 92 % of control (dose: 30.0 mg/kg/injection, schedule: Q01DX005 (ip), vehicle: saline with Tween-80).

Consider `CCCCCCC(=O)/C=C\c1ccccc1`, for which the T/C was 95 % of control (dose: 25.0 mg/kg/injection, schedule: Q04DX002 (ip), vehicle: saline with Tween-80); 100 % of control (dose: 50.0 mg/kg/injection, schedule: Q04DX002 (ip), vehicle: saline with Tween-80); 97 % of control under setting [7]; 106 % of control under setting [8].

With `CN(C)CC1C(=O)C2CCC1C2` (configuration not stated), the T/C is 98 % of control under setting [1], 98 % of control under setting [2] and 108 % of control under setting [3].

`O=C1CSC2=NCCN12`: the T/C runs as follows: (dose: 50.0 mg/kg/injection, schedule: Q01DX009 (ip), vehicle: suspension in saline) 101 % of control; (dose: 100.0 mg/kg/injection, schedule: Q01DX009 (ip), vehicle: suspension in saline) 107 % of control; (dose: 200.0 mg/kg/injection, schedule: Q01DX009 (ip), vehicle: suspension in saline) 115 % of control.

With `COC(=O)C1(C)C(=O)C=CC2(C)C1CC(OC(C)=O)C1(C)C2C(=O)C(OC(C)=O)C2(C)C(c3ccoc3)CC3OC321` (configuration not stated), the T/C was 99 % of control (dose: 0.75 mg/kg/injection, schedule: Q01DX005 (ip), vehicle: Klucel (hydroxypropylcellulose) (HPC)); 101 % of control (dose: 1.5 mg/kg/injection, schedule: Q01DX005 (ip), vehicle: Klucel (hydroxypropylcellulose) (HPC)); 97 % of control (dose: 3.0 mg/kg/injection, schedule: Q01DX005 (ip), vehicle: Klucel (hydroxypropylcellulose) (HPC)); 97 % of control (dose: 6.0 mg/kg/injection, schedule: Q01DX005 (ip), vehicle: Klucel (hydroxypropylcellulose) (HPC)); 98 % of control (dose: 12.0 mg/kg/injection, schedule: Q01DX005 (ip), vehicle: Klucel (hydroxypropylcellulose) (HPC)).

`O=c1oc2ccccc2cc1-c1ccc(Br)c2ccccc12`: the T/C is 93 % of control under setting [9], 100 % of control under setting [10] and 95 % of control under setting [11].

With `O=c1oc2cc(Cl)cnc2n1-c1ccccc1`, the T/C by setting is: under setting [4], 96 % of control; under setting [5], 98 % of control; under setting [6], 90 % of control.

`O=C1OCC/C1=C/OS(=O)(=O)C(F)(F)F`: the T/C is 101 % of control and 107 % of control (dose: 18.8 mg/kg/injection, schedule: Q01DX009 (ip), vehicle: distilled water + Tween-80); 110 % of control (dose: 37.5 mg/kg/injection, schedule: Q01DX009 (ip), vehicle: distilled water + Tween-80); 118 % of control and 123 % of control (dose: 75.0 mg/kg/injection, schedule: Q01DX009 (ip), vehicle: distilled water + Tween-80).

Regarding `C/C(=N\Nc1cc(C)nc2cc3c(cc12)OCO3)c1cn(C)n(-c2ccccc2)c1=O`, the T/C (dose: 3.12 mg/kg/injection, schedule: Q01DX005 (ip), vehicle: Klucel (hydroxypropylcellulose) (HPC)) was 97 % of control; the T/C (dose: 6.25 mg/kg/injection, schedule: Q01DX005 (ip), vehicle: Klucel (hydroxypropylcellulose) (HPC)) is 97 % of control; the T/C (dose: 12.5 mg/kg/injection, schedule: Q01DX005 (ip), vehicle: Klucel (hydroxypropylcellulose) (HPC)) was 103 % of control and 96 % of control; the T/C (dose: 25.0 mg/kg/injection, schedule: Q01DX005 (ip), vehicle: Klucel (hydroxypropylcellulose) (HPC)) was 100 % of control; the T/C under setting [12] is 98 % of control and 110 % of control; the T/C under setting [13] is 109 % of control.

On to `CC(=O)Nc1cc(N(CCOS(C)(=O)=O)CCOS(C)(=O)=O)ccc1N=O`, for which the T/C is 154 % of control (dose: 0.08 mg/kg/injection, schedule: Q01DX009 (ip), vehicle: saline); 168 % of control (dose: 1.25 mg/kg/injection, schedule: Q04DX003 (ip), vehicle: saline sonified); 177 % of control (dose: 2.5 mg/kg/injection, schedule: Q04DX003 (ip), vehicle: saline sonified); 159 % of control (dose: 75.0 micrograms/kg/injection, schedule: Q01DX009 (ip), vehicle: saline); 159 % of control (dose: 150.0 micrograms/kg/injection, schedule: Q01DX009 (ip), vehicle: saline).

Take `BrC=C(Br)Br`: the T/C under setting [1] is 104 % of control, the T/C under setting [2] was 100 % of control and the T/C under setting [3] is 95 % of control.

For the molecule `Cc1ccc2c(C(=O)O)cccc2n1`, the T/C is, setting by setting: under setting [7], 97 % of control; under setting [8], 98 % of control; (dose: 400.0 mg/kg/injection, schedule: Q04DX002 (ip), vehicle: saline with Tween-80) 95 % of control.

In the case of `CCCCOC(=O)N(CCF)N=O`, the T/C by setting is: (dose: 3.12 mg/kg/injection, schedule: Q01DX001 (ip), vehicle: saline with Tween-80) 109 % of control; (dose: 6.25 mg/kg/injection, schedule: Q01DX001 (ip), vehicle: saline with Tween-80) 118 % of control and 119 % of control; (dose: 12.5 mg/kg/injection, schedule: Q01DX001 (ip), vehicle: saline with Tween-80) 118 % of control and 119 % of control.

Turning to `CC1NC(C)c2c(ccc3ccccc23)O1` (configuration not stated), the T/C under setting [1] was 100 % of control, the T/C under setting [2] is 100 % of control and the T/C under setting [3] is 97 % of control.

With `CCCCN1CSC2CCCCC21` (configuration not stated), the T/C reads like this: (dose: 25.0 mg/kg/injection, schedule: Q01DX005 (ip), vehicle: saline) 98 % of control; (dose: 50.0 mg/kg/injection, schedule: Q01DX005 (ip), vehicle: saline) 111 % of control and 93 % of control; (dose: 100.0 mg/kg/injection, schedule: Q01DX005 (ip), vehicle: saline) 104 % of control and 111 % of control; (dose: 200.0 mg/kg/injection, schedule: Q01DX005 (ip), vehicle: saline) 121 % of control.

In the case of `CC(C)(C)C1CCC2(CC1)OCC1CCCN12` (configuration not stated), the T/C by setting is: (dose: 25.0 mg/kg/injection, schedule: Q01DX005 (ip), vehicle: saline with Tween-80) 88 % of control; under setting [1], 88 % of control; under setting [2], 95 % of control.

Turning to `CC(NNC(=S)N1CCCCCC1)c1cccc[n+]1[O-]` (configuration not stated), the T/C by setting is: under setting [12], 101 % of control; under setting [13], 101 % of control; (dose: 200.0 mg/kg/injection, schedule: Q01DX005 (ip), vehicle: Klucel (hydroxypropylcellulose) (HPC)) 93 % of control.

With `COC(=O)c1[nH]cc2ccccc12`, the T/C by setting is: (dose: 100.0 mg/kg/injection, schedule: Q04DX003 (ip), vehicle: saline with Tween-80) 98 % of control; (dose: 200.0 mg/kg/injection, schedule: Q04DX003 (ip), vehicle: saline with Tween-80) 104 % of control; (dose: 400.0 mg/kg/injection, schedule: Q04DX003 (ip), vehicle: saline with Tween-80) 102 % of control.

As to `C(=C(Sc1ccccc1)Sc1ccccc1)C(Sc1ccccc1)c1ccccc1` (configuration not stated), the T/C is, setting by setting: under setting [9], 93 % of control; under setting [10], 96 % of control; under setting [11], 90 % of control.

For `COc1cc2c(cc1OC)C(=O)C(Br)CC2` (configuration not stated), the T/C is 104 % of control (dose: 50.0 mg/kg/injection, schedule: Q01DX009 (ip), vehicle: saline with Tween-80) and 113 % of control (dose: 100.0 mg/kg/injection, schedule: Q01DX009 (ip), vehicle: saline with Tween-80).
